Results reported in patent US8790735B2, “Method of preferentially reducing absorption of saturated fat and compositions” (General Mills, Inc., priority 2005, dated 2014).
Entries after “also recorded” stand apart in the source; their conditions may differ.

Test system: Male Wistar rats
Assay: Excretion of radiolabeled triolein and tripalmitin in rats fed test diets
Assay type: in vivo, rat
Description: As noted above, saturated fat is deemed to be complexed if at least about 5% of the available saturated fat is complexed. The amount of fat that is complexed is determined by conducting excretion studies as detailed below, and determining the amount of fat that is excreted as compared to a control sample not containing complexed fat. While some of the complexed fat may dissociate in the body, the excretion study will identify the minimum percentage of fat that is complexed.
• 13. Centrifuge the isolated aqueous layer from 11 above at 5000×g for 10 min. • 14. Filter 1 ml of the centrifuged sample supernatant with 0.45 micrometer nylon filter. Inject on to HPLC molecular sizing column. Quantify total cyclodextrin relative to a response factor developed from a standard curve of pure cyclodextrin. • 15. For Pure Fat Samples Only: Weigh remainder of supernatant sample into tared flask. Evaporate moisture to dryness. Record weight of solids. (note: net weight for non-salt containing fat samples will represent free alpha-cyclodextrin) • 16. Subtract free alpha-cyclodextrin amounts determined in 8 above from values determined in steps 15 and 16. Value equals total bound alpha-cyclodextrin. Experimental Design Male Wistar rats, 125-150 g in initial weight, 10 per group, were fed one of four diets. The diets were modifications of the AIN-93G diet [Reeves, PG (1997) Components of the AIN-93 Diets as Improvements in the AIN-76A Diet, J. Nutr. 127:838 S-841S], and thus was a purified diet. All diets were modified to contain 15% fat by weight, wherein the fat comprised 50% ^14C-triolein, an unsaturated fat that is a triglyceride of oleic acid, and 50% ^3H-tripalmitin, a saturated fat that is a triglyceride of palmitic acid. The diets were as follows:
Note that Diet 3 comprised the AIN-93G diet containing 5% α-cyclodextrin (replacing cellulose), which was added in the free unhydrated form as provided by the manufacturer (unhydrated ACD contains approximately 10% w/w moisture). Diet 4 comprised the AIN-93G diet containing 5% hydrated α-cyclodextrin (replacing cellulose), mixed with the radiolabeled fat prior to incorporation into the diet.
The animals were fed their respective diets for 7 days. A two day fecal fat collection was made during days 6 and 7 to allow for a conventional fecal fat determination (i.e. fat extraction with acidified chloroform:methanol). The animals were then fasted overnight, and presented with a 4 g meal of their respective diets containing ^14C-triolein and ^3H-tripalmitin incorporated into the diet. A fecal collection was begun four hours later, and continued until the animals were taken. Twelve hours later, the rats were killed and the small and large intestinal tracts removed. Contents of the stomach, small intestine, cecum, and colon as well as the small intestinal mucosa were collected and freeze-dried. […] After solubilization, the solution was neutralized with glacial acetic acid (to eliminate chemiluminescence), scintillation cocktail added, and the vials counted in a liquid scintillation counter using a dual label counting algorithm.
In this study, excretion is defined as all radiolabel present in the cecal contents, colon contents, and feces. Excretion is calculated in this manner as there is no absorption of triacylglycerols in the large intestine; thus, any radiolabel present in the cecal or colon contents cannot be absorbed and is thus destined to be excreted. […]

[1] = 5% in AIN-93G diet with 15% fat, fed 7 days, then 4 g radiolabeled meal, FIG. 1

## OC[C@H]1O[C@@H]2O[C@H]3[C@H](O)[C@@H](O)[C@@H](O[C@H]4[C@H](O)[C@@H](O)[C@@H](O[C@H]5[C@H](O)[C@@H](O)[C@@H](O[C@H]6[C@H](O)[C@@H](O)[C@@H](O[C@H]7[C@H](O)[C@@H](O)[C@@H](O[C@H]1[C@H](O)[C@H]2O)O[C@@H]7CO)O[C@@H]6CO)O[C@@H]5CO)O[C@@H]4CO)O[C@@H]3CO [α-cyclodextrin, alpha-cyclodextrin]
[1]
  triolein excretion (radiolabel in cecal contents, colon contents and feces): no or only a modest effect
  tripalmitin excretion (radiolabel in cecal contents, colon contents and feces): dramatically increased; also recorded: dramatic effect
5% in AIN-93G diet with 15% fat, fed 7 days, then 4 g radiolabeled meal, FIG. 1, listed as α-Cyclodextrin
  triolein excretion (radiolabel in cecal contents, colon contents and feces): no affect
Calculated from FIG. 1 values (radiolabel excreted as proportion of radiolabel consumed), FIG. 2
  ratio of excretion of tripalmitin to triolein: favored tripalmitin excretion
dietary, 5% in diet, rats
  fat excretion: does indeed increase fat excretion
